In patent US20240299431A1, “NEW SYNTHETIC AGONISTS OF TLR4 RECEPTOR” (UNIVERSITÀ DEGLI STUDI DI MILANO - BICOCCA, priority 2021, published 2024):
Entries after “also recorded” stand apart in the source; their conditions may differ. Like-named read-outs stand apart in the source and are kept apart here. Each block holds one molecule with its values, some of them ahead of it.

What was measured:
human TLR4 [1] = target: T1, human TLR4 (Homo sapiens, UniProt O00206+Q9Y6Y9); assay: Inhibition of LPS-induced SEAP production in HEK-Blue hTLR4 cells (antagonism); assay type: cell-based
T1 construct: host or cells: HEK-Blue hTLR4 (HEK293-derived)

HEK-Blue Null cells = HEK-Blue Null cells SEAP reporter (lack the LPS receptors); assay type: cell-based, human
[2] = Pilot in vivo toxicity of adjuvants in mice; parameters: species or system C57Bl/6 mice; conditions: 10 μg subcutaneously, over 7 days
Procedure: (§1) The ability of FP11 and FP112 to induce immune responses in vivo was compared to MPLA by evaluating antibody production in C57Bl/6 mice immunized with chicken ovalbumin (OVA) as a model antigen. Has been first evaluated the toxicity of FPs in a pilot experiment in which mice were injected subcutaneously with 10 μg of the FP11 and FP112. […] Next, mice were immunized with the tested adjuvants mixed with ovalbumin (OVA). The induction of antibody was evaluated 21 days post immunization.

[3] = test system: C57Bl/6 mice immunized with chicken ovalbumin (OVA); assay: OVA immunization, adjuvant activity (anti-OVA total IgG); assay type: in vivo; conditions: for anti-OVA total IgG after prime immunization compared to MPLA-OVA immunized animals / anti-OVA total IgG after prime immunization compared to OVA-immunized control: 21 days post immunization
Procedure: as §1

human TLR2 = target: T2, human TLR2 (Homo sapiens, UniProt O60603); assay: HEK-Blue hTLR2 SEAP reporter assay; assay type: cell-based; conditions: HEK-Blue hTLR2 cells, compounds 0.1-25 μM; PAM2CSK4 positive control (1 ng/mL)
T2 construct: host or cells: HEK-Blue hTLR2 (HEK reporter cell line)
Text: (§2) HEK-BIue™ hTLR4 and HEK-BIue™ hTLR2 (InvivoGen) are cell lines designed to study the activation of human TLR4 and TLR2 receptors, respectively, by monitoring the activation of transcription factors NF-kB and AP-1. Stimulation with TLR4 ligands (in the case of HEK-Blue hTLR4) or with TLR2 ligands (in the case of HEK-Blue hTLR2) activates NF-kB and AP-1, inducing the production and release of the SEAP reporter gene (phosphatase secreted embryonic alkaline) in the extracellular environment. The analysis of the reporter gene was performed using the QUANTI-Blue™ colorimetric assay (InvivoGen), a substrate of SEAP, which generates a chromogenic product whose absorbance is read at 630 nm. […] The molecules were subsequently tested on the HEK-Blue hTLR2 cell line with the aim of excluding the activation of this receptor. In this regard, HEK-Blue hTLR2 cells were treated with the same compounds and at the same concentrations as the tests conducted previously and the compound PAM2CSK4 was used as a positive control for TLR2 activation.

NF-kB [4] = assay: THP-1-X Blue macrophages, NF-kB/AP-1 SEAP reporter; assay type: cell-based, human
Procedure: (§3) THP-1-X BIue™ cell lines, monocytes differentiated into macrophages following treatment with PMA 100 ng/mL, and RAW-BIue™ were used. Similarly to HEK-Blue cells, THP-1 X-Blue and […] stably express the SEAP reporter gene, under the control of transcription factors NF-kB and AP-1. The cells were treated as previously described.
FP200 activity was then assessed on human monocytes cell line THP-1-X-Blues, described before. Cells were treated with compounds FP11, FP112, FP20, FP200 and FP21 in increasing concentrations (0.1, 1, 10, 20 μM) and using MPLA (0.1-1-10 μM) and S-LPS (100 ng/mL) as a reference and positive receptor activation control, respectively.
Compound FP207, functionalized with MPA, was tested in vitro on human THP-1-XBlue cells to evaluate the NF-kB activation.

NF-kB [5] = assay: RAW-Blue murine macrophages, NF-kB/AP-1 SEAP reporter; assay type: cell-based; conditions: RAW-blue line
Procedure: as §3

THP-1-X-Blue cells = assay: MTT viability assay on differentiated THP-1-X-Blue cells; assay type: cell-based, human; conditions: THP-1-X-Blue macrophages; for cell viability at the highest concentration tested: 50 μM; for toxicity (MTT viability): 0.1-50 μM
Procedure: (§4) The toxicity of the compounds was evaluated by MTT viability assay (3-(4,5-dimethylthiazol-2-yl)-2,5-diphenyltetrazolium bromide).
A preliminary test to investigate the toxicity of this functionalized compound was performed, even though without a triplicate.

RAW-Blue = assay: MTT viability assay on RAW-Blue cells; assay type: cell-based; conditions: mouse macrophage line RAW-Blue
Procedure: as §4

human TLR4 [6] = target: T1, human TLR4; assay: HEK-Blue hTLR4 SEAP reporter assay (agonist activity, QUANTI-Blue); assay type: cell-based; conditions: HEK-Blue hTLR4 cells, 0.1-25 μM, 18 hours, normalized to LPS
Text: as §2, with “nm. The agonist activity of the molecules was tested by treating HEK-Blue hTLR4 cells for 18 hours with increasing concentrations of the compounds (0.1-1-10-25 μM) and using MPLA (0.1-1-10 μM) and S-LPS (100 ng/mL) as a reference and positive receptor activation control, respectively.” for “nm.”, “In this regard, HEK-Blue hTLR2 cells were treated with the same compounds and at the same concentrations as the tests conducted previously and the compound PAM2CSK4 was used as a positive control for TLR2 activation.” left out
The ability of FP molecules to activate human TLR4 was assessed using HEK-Blue hTLR4 cells. […]

human TLR4 [7] = target: T1, human TLR4; conditions: HEK-Blue hTLR4 cells, Experiment 2 of WO2019/092572; cited from earlier work
[8] = test system: Hek-Blue, Raw-Blue, THP-1 cells; assay: In vitro tests on Hek-Blue, Raw-Blue and THP-1 cells (summary statements); assay type: cell-based
[9] = test system: Hek-Blue, Raw-Blue, THP-1 cells; conditions: prior art section, cited from earlier work
[10] = test system: IL-1α, IL-1β, IL-6, TNF-α and IFNβ; conditions: cited from earlier work
TLR4 = conditions: both murine and human cells; cited from earlier work
[11] = test system: interleukin-6 (IL-6), interleukin-8 (IL-8) and TNF-α; conditions: murine macrophages and neutrophil granulocytes; cited from earlier work
Escherichia coli = conditions: one dose one day prior to microbial inoculation; cited from earlier work
[12] = tumour-affected patients; cited from earlier work

T2 sequence (O60603 21-784): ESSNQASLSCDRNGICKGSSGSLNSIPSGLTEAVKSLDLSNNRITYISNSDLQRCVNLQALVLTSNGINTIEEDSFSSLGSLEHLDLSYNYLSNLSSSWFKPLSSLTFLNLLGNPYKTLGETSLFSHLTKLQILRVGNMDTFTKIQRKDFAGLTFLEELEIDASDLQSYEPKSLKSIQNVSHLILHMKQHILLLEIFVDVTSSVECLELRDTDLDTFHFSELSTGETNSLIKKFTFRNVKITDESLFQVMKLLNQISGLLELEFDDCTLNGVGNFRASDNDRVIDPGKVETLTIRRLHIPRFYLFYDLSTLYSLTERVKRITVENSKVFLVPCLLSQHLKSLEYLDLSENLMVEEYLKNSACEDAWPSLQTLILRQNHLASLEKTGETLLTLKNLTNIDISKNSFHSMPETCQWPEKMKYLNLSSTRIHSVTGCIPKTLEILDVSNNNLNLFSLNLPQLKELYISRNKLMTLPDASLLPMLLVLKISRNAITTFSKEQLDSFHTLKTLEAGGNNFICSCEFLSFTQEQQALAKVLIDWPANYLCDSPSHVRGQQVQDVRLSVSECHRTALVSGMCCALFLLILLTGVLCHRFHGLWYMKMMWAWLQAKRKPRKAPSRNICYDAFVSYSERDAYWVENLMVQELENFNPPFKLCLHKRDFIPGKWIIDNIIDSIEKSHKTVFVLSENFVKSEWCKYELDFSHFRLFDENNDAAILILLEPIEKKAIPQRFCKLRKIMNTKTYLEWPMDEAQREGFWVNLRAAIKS
T1 sequence (O00206 24-839): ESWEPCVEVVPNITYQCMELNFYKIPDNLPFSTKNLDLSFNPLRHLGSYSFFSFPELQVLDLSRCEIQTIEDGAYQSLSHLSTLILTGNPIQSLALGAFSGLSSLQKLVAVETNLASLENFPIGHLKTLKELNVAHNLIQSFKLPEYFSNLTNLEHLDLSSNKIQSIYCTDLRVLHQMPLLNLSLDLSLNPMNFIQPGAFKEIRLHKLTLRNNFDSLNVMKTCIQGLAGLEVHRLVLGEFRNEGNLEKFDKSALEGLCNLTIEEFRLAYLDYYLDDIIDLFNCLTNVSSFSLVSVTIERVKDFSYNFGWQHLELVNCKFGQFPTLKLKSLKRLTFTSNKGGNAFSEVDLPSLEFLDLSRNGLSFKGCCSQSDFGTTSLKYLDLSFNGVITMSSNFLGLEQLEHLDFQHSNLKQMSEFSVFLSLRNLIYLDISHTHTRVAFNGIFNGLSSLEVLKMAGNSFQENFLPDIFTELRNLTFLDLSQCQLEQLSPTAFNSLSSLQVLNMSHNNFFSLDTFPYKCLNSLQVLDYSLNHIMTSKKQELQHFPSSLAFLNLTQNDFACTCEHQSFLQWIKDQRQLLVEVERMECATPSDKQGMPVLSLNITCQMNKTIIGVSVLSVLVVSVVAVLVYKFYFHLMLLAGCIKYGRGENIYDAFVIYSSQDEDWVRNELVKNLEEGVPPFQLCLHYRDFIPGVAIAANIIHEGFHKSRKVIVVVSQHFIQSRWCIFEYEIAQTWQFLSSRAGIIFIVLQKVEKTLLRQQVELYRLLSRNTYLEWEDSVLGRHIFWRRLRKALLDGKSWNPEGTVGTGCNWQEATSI
T1 sequence (Q9Y6Y9 17-160 limits assumed): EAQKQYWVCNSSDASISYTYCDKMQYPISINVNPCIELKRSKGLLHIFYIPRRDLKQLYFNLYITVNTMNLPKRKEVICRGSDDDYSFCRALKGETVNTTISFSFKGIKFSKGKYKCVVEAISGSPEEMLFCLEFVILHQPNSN

Molecule: CCCCCCCCCCCCCC(=O)NC1C(OC(=O)CCCCCCCCCCCCC)[C@H](OC(=O)CCCCCCCCCCCCC)C(CO)O[C@H]1OP(=O)(O)O (some centres unmarked) [FP11]
inhibition of LPS-induced SEAP production (TLR4 antagonistic activity) (human TLR4 [1]): did not inhibit LPS-induced SEAP production
activity on HEK-Blue Null cells (HEK-Blue Null cells): lack of activity
adverse effect on mice (local response at injection site, weight, alertness) [2]: no obvious adverse effect
anti-OVA total IgG after prime immunization compared to MPLA-OVA immunized animals [3]: significantly lower levels
anti-OVA total IgG after prime immunization compared to OVA-immunized control [3]: marginally higher levels

Molecule: CCCCCCCCCCCC(=O)NC1C(OC(=O)CCCCCCCCCCC)OC(CO)C(OP(=O)([O-])[O-])C1OC(=O)CCCCCCCCCCC.[Na+].[Na+] (centres unmarked) [FP20]
activation of TLR2 (SEAP) (human TLR2): did not produce any activation
concentration from which the compounds activate significantly (NF-kB [4]): 10 µM
lowest concentration tested at which the compounds are active (NF-kB [5]): 0.1 µM
cell viability at the highest concentration tested (THP-1-X-Blue cells): decrease in cell viability
toxicity (MTT viability) (THP-1-X-Blue cells): non-toxic
toxicity (MTT viability) (RAW-Blue; 50 μM): increase in the toxicity

Molecule: CCCCCCCCCCCCCC(=O)OC1OC(CO)C(OP(=O)([O-])[O-])C(OC(=O)CCCCCCCCCCCCC)C1NC(=O)CCCCCCCCCCC.[Na+].[Na+] (centres unmarked) [FP21]
activation of TLR2 (SEAP) (human TLR2): did not produce any activation
concentration from which the compounds activate significantly (NF-kB [4]): 10 µM
lowest concentration tested at which the compounds are active (NF-kB [5]): 0.1 µM
toxicity (MTT viability) (THP-1-X-Blue cells): non-toxic
toxicity (MTT viability) (RAW-Blue; 50 μM): increase in the toxicity

Molecule: CCCCCCCCCC(=O)NC1C(OC(=O)CCCCCCCCC)OC(CO)C(OP(=O)([O-])[O-])C1OC(=O)CCCCCCCCC.[Na+].[Na+] (centres unmarked) [FP22]
toxicity (MTT viability) (THP-1-X-Blue cells): non-toxic
toxicity (MTT viability) (RAW-Blue; 50 μM): increase in the toxicity

Molecule: CCCCCCCCCCCCCC(=O)NC1C(OC(=O)CCCCCCCCCCCCC)OC(CO)C(OP(=O)([O-])[O-])C1OC(=O)CCCCCCCCCCCCC.[Na+].[Na+] (centres unmarked) [FP23]
activation of TLR2 (SEAP) (human TLR2): did not produce any activation
lowest concentration tested at which the compounds are active (NF-kB [5]): 0.1 µM
cell viability at the highest concentration tested (THP-1-X-Blue cells): decrease in cell viability
toxicity (MTT viability) (THP-1-X-Blue cells): non-toxic
toxicity (MTT viability) (RAW-Blue; 25 μM): show toxicity
toxicity (MTT viability) (RAW-Blue; 50 μM): increase in the toxicity

Molecule: CCCCCCCCCCCC(=O)NC1C(OC(=O)CCCCCCCCC)OC(CO)C(OP(=O)([O-])[O-])C1OC(=O)CCCCCCCCC.[Na+].[Na+] (centres unmarked) [FP24]
activation of TLR2 (SEAP) (human TLR2): did not produce any activation
concentration from which the compounds activate significantly (NF-kB [4]): 10 µM
lowest concentration tested at which the compounds are active (NF-kB [5]): 0.1 µM
toxicity (MTT viability) (THP-1-X-Blue cells): non-toxic
toxicity (MTT viability) (RAW-Blue; 50 μM): increase in the toxicity

activation of TLR4 (SEAP release, NF-kB and AP-1) (human TLR4 [6]): inactive
Molecule: CCCCCCCCCCCCCC(=O)NC1[C@H](OP(=O)(O)O)OC(COP(=O)(O)O)[C@@H](OC(=O)CCCCCCCCCCCCC)[C@@H]1OC(=O)CCCCCCCCCCCCC (some centres unmarked) [FP111]
inhibition of LPS-induced SEAP production (TLR4 antagonistic activity) (human TLR4 [1]): did not inhibit LPS-induced SEAP production
TLR4 agonist activity (human TLR4 [7]): completely inactive

Molecule: CCCCCCCCCCCC(=O)NC1C(OP(=O)(O)O)OC(CO)C(OC(=O)CCCCCCCCCCC)C1OC(=O)CCCCCCCCCCC (centres unmarked) [FP112]
inhibition of LPS-induced SEAP production (TLR4 antagonistic activity) (human TLR4 [1]): did not inhibit LPS-induced SEAP production
activity on HEK-Blue Null cells (HEK-Blue Null cells): lack of activity
adverse effect on mice (local response at injection site, weight, alertness) [2]: no collateral damage; also recorded: no obvious adverse effect
anti-OVA total IgG after prime immunization compared to MPLA-OVA immunized animals [3]: significantly lower levels
anti-OVA total IgG after prime immunization compared to OVA-immunized control [3]: marginally higher levels
ova-specific IgG levels after boost immunization ([3]; boost on day 22, examined 14 days later): higher than those in the FP11-immunized group
effectiveness/potency as vaccine adjuvant in vivo ([3]; compared to FP11 and MPLA): comparable to that of MPLA; also recorded: more effective adjuvant in vivo than FP11 and has a potency comparable or even greater than MPLA
toxicity in vitro [8]: low toxicity
pro-inflammatory activity ([8]; 10 μM): good pro-inflammatory activy
pro-inflammatory activity ([9]; 10 μM): good pro-inflammatory activity
toxicity in vitro [9]: low toxicity
release of proinflammatory cytokines [10]: able to stimulate the release of numerous proinflammatory cytokines

Molecule: CCCCCCCCCCCCCC(=O)OC(CCCCCCCCCCC)CC(=O)O[C@H]1[C@H](OP(=O)(O)O)[C@@H](CO)OC(O)[C@@H]1NC(=O)CC(O)CCCCCCCCCCC (some centres unmarked) [GLA60]
stimulation of TLR4-dependent production of cytokines TNF-α and IL-6 (TLR4): active

Molecule: CCCCCCCCCCC[C@@H](O)CC(=O)N[C@H]1[C@@H](OP(=O)(O)O)O[C@H](CO)[C@@H](OC(=O)C[C@H](O)CCCCCCCCCCC)[C@@H]1OC(=O)C[C@H](O)CCCCCCCCCCC [SDZ MRL 953]
stimulation of release of inflammatory cytokines [11]: potent activity
effect on curative effects of antibiotics (Escherichia coli): dramatically increased the curative effects of antibiotics administered
granulocyte counts and serum cytokine levels [12]: increases granulocyte counts and serum levels of G-CSF and interleukin-6 (IL-6), but not of pro-inflammatory cytokines TNF-α, IL-1b, and IL-8
safety and tolerability in humans [12]: safe and of excellent tolerability

activation of TLR2 (SEAP) (human TLR2): strong activation of TLR2
Molecule: PAM2CSK4
